In assay [1] the target is T1, Steroid 5-α-Reductase (Homo sapiens, UniProt P31213).
T1 construct: microsomes derived from prostate tissue of benign prostatic hypertrophy (BPH) patients; from tissue; host or cells: prostate tissue of BPH patients, microsomes
T1 sequence (P31213 1-254): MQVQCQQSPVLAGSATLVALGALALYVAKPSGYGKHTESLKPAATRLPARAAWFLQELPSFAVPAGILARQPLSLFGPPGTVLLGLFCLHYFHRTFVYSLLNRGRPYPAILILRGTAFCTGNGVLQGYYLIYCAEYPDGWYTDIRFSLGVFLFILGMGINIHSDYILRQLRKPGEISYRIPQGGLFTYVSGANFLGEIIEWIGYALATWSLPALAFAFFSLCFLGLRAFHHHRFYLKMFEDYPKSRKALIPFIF
The experiment in a line: Steroid 5-α-reductase in vitro assay, human prostate microsomes (BPH patients). To be noted: human prostatic microsomes; 100 nM [3H]-testosterone, 1 mM NADPH, 60 minutes at 37° C. It counts as biochemical.

The target in assay [2] is Steroid 5-α-Reductase. Briefly: Steroid 5-α-reductase in vitro assay, rat prostate microsomes. It counts as biochemical. Particulars: rat prostatic microsomes; 100 nM [3H]-testosterone, 1 mM NADPH, 60 minutes at 37° C.; read-out: ID50 Rat.

Among the data in patent US5543406A, “Inhibitors of 5-α-testosterone reductase” (priority 1994, dated 1996) are IC50 values, retold here.

Structures are written as SMILES. A value given as a limit tells only on which side of the number the result lay.

For `CCN(CC)C(=O)[C@H]1CC[C@H]2[C@@H]3CNC4=CC(=O)CC[C@]4(C)[C@H]3CC[C@]12C` [Compound 1, 17β-N,N-Diethylcarbamoyl-6-azaandrost-4-en-3-one], the IC50 was below 10 nM against Steroid 5-α-Reductase [1] and 10 to 100 nM at Steroid 5-α-Reductase [2].
In the case of `CCN(CC)C(=O)[C@H]1CC[C@H]2[C@@H]3CN(C)C4=CC(=O)CC[C@]4(C)[C@H]3CC[C@]12C` [Compound 2, 17β-N,N-Diethylcarbamoyl-6-methyl-6-azaandrost-4-en-3-one], the IC50 is below 10 nM on Steroid 5-α-Reductase [1] and 10 to 100 nM on Steroid 5-α-Reductase [2].
Taken in the same sequence, the figures for `C[C@]12CC[C@H]3[C@@H](CNC4=CC(=O)CC[C@@]43C)[C@@H]1CC[C@@H]2C(=O)Sc1ccccn1` [Compound 4, 17β-(2-Pyridinylthiocarbonyl)-6-azaandrost-4-en-3-one] were below 10 nM and 100 to 1000 nM.
Take `CC(C)CC(=O)[C@H]1CC[C@H]2[C@@H]3CNC4=CC(=O)CC[C@]4(C)[C@H]3CC[C@]12C` [Compound 5, 17β-(1-Oxo-3-methylbutyl)-6-azaandrost-4-en-3-one]: the IC50 against Steroid 5-α-Reductase [1] was below 10 nM; on Steroid 5-α-Reductase [2], 10 to 100 nM.
For `CCN(CC)C(=O)[C@H]1CC[C@H]2[C@@H]3CNC4=CC(=O)C=C[C@]4(C)[C@H]3CC[C@]12C` [Compound 6, 17β-N,N-Diethylcarbamoyl-6-azaandrost-1,4-dien-3-one], the values for the IC50 against Steroid 5-α-Reductase [1] and at Steroid 5-α-Reductase [2] were 10 to 100 nM and 100 to 1000 nM, respectively.
With `CCN(CC)C(=O)[C@H]1CC[C@H]2[C@@H]3CNC4=C(Cl)C(=O)CC[C@]4(C)[C@H]3CC[C@]12C` [Compound 8, 17β-N,N-Diethylcarbamoyl-6-azaandrost-4-chloro-4-en-3-one], the IC50 on Steroid 5-α-Reductase [2] fell in the range of 10 to 100 nM.
In the case of `CCN(CC)C(=O)[C@H]1CC[C@H]2[C@@H]3CNC4=C(Br)C(=O)CC[C@]4(C)[C@H]3CC[C@]12C` [Compound 9, 17β-N,N-Diethylcarbamoyl-6-azaandrost-4-bromo-4-en-3-one], the IC50 against Steroid 5-α-Reductase [1] is below 10 nM; at Steroid 5-α-Reductase [2] it was 100 to 1000 nM.
Consider `CCN(CC)C(=O)[C@H]1CC[C@H]2[C@@H]3CNC4=C(C)C(=O)CC[C@]4(C)[C@H]3CC[C@]12C` [Compound 11, 17β-N,N-Diethylcarbamoyl-6-azaandrost-4-methyl-4-en-3-one], for which the IC50 at Steroid 5-α-Reductase [2] fell in the range of 100 to 1000 nM.
In the case of `CC(C)N(C(=O)[C@H]1CC[C@H]2[C@@H]3CNC4=CC(=O)CC[C@]4(C)[C@H]3CC[C@]12C)C(C)C` [Compound 17, 17β-N,N-Diisopropylcarbamoyl-6-azaandrost-4-en-3-one], the IC50 against Steroid 5-α-Reductase [1] was below 10 nM; at Steroid 5-α-Reductase [2], 100 to 1000 nM.
On to `CC(C)N(C(=O)[C@H]1CC[C@H]2[C@@H]3CN(C)C4=CC(=O)CC[C@]4(C)[C@H]3CC[C@]12C)C(C)C` [Compound 18, 17β-N,N-Diisopropylcarbamoyl-6-methyl-6-azaandrost-4-en-3-one], for which the values for the IC50 against Steroid 5-α-Reductase [1] and on Steroid 5-α-Reductase [2] were below 10 nM and 10 to 100 nM, respectively.
In the case of `CN1C[C@H]2[C@@H]3CC[C@H](C(=O)NC45CC6CC(CC(C6)C4)C5)[C@@]3(C)CC[C@@H]2[C@@]2(C)CCC(=O)C=C12` [Compound 20, 17β-N-1-Adamantylcarbamoyl-6-methyl-6-azaandrost-4-en-3-one], the IC50 on Steroid 5-α-Reductase [1] and at Steroid 5-α-Reductase [2] was below 10 nM throughout.
For `CON(C)C(=O)[C@H]1CC[C@H]2[C@@H]3CNC4=CC(=O)CC[C@]4(C)[C@H]3CC[C@]12C` [Compound 21, 17β-N-Methoxy-N-methylcarbamoyl-6-azaandrost-4-en-3-one], the IC50 against Steroid 5-α-Reductase [1] is below 10 nM; on Steroid 5-α-Reductase [2] it was 100 to 1000 nM.
Turning to `C[C@]12CC[C@H]3[C@@H](CNC4=CC(=O)CC[C@@]43C)[C@@H]1CC[C@@H]2C(=O)N1CCOCC1` [Compound 23, 17β-N-Morpholinocarbamoyl-6-azaandrost-4-en-3-one], the IC50 lay in the range of 10 to 100 nM at Steroid 5-α-Reductase [1] and 100 to 1000 nM at Steroid 5-α-Reductase [2].
For the compound `CC(C)CC(=O)[C@H]1CC[C@H]2[C@@H]3CN(C)C4=CC(=O)CC[C@]4(C)[C@H]3CC[C@]12C` [Compound 26, 17β-(1-Oxo-3-methylbutyl)-6-methyl-6-azaandrost-4-en-3-one], the IC50 at Steroid 5-α-Reductase [2] was in the range of 10 to 100 nM.
As to `CCN(CC)C(=O)[C@H]1CC[C@H]2[C@@H]3CN(C)C4=CC(=O)C=C[C@]4(C)[C@H]3CC[C@]12C` [Compound 27, 17β-N,N-Diethylcarbamoyl-6-methyl-6-azaandrost-1,4-dien-3-one], the IC50 was in the range of 10 to 100 nM at Steroid 5-α-Reductase [1] and 100 to 1000 nM on Steroid 5-α-Reductase [2].
As for `CC(C)(C)NC(=O)[C@H]1CC[C@H]2[C@@H]3CNC4=CC(=O)C=C[C@]4(C)[C@H]3CC[C@]12C` [Compound 28, 17β-N-t-Butylcarbamoyl-6-azaandrost-1,4-dien-3-one], the values for the IC50 on Steroid 5-α-Reductase [1] and on Steroid 5-α-Reductase [2] were 10 to 100 nM and 100 to 1000 nM, respectively.
On to `CN1C[C@H]2[C@@H]3CC[C@H](C(=O)NC(C)(C)C)[C@@]3(C)CC[C@@H]2[C@@]2(C)C=CC(=O)C=C12` [Compound 29, 17β-N-t-Butylcarbamoyl-6-methyl-6-azaandrost-1,4-dien-3-one], for which the IC50 is 10 to 100 nM against Steroid 5-α-Reductase [1] and 100 to 1000 nM at Steroid 5-α-Reductase [2].
Taken in the same sequence, the figures for `CN1C[C@H]2[C@@H]3CC[C@H](C(=O)NC45CC6CC(CC(C6)C4)C5)[C@@]3(C)CC[C@@H]2[C@@]2(C)C=CC(=O)C=C12` [Compound 31, 17β-N-1-Adamantylcarbamoyl-6-methyl-6-azaandrost-1,4-dien-3-one] were below 10 nM and 10 to 100 nM.
As to `C[C@]12CC[C@H]3[C@@H](CNC4=C(Br)C(=O)CC[C@@]43C)[C@@H]1CC[C@@H]2C(=O)NC12CC3CC(CC(C3)C1)C2` [Compound 55, 17β-N-1-Adamantylcarbamoyl-6-azaandrost-4-bromo-4-en-3-one], the IC50 at Steroid 5-α-Reductase [1] and at Steroid 5-α-Reductase [2] was below 10 nM throughout.
Take `CC1=C2NC[C@H]3[C@@H]4CC[C@H](C(=O)NC56CC7CC(CC(C7)C5)C6)[C@@]4(C)CC[C@@H]3[C@@]2(C)CCC1=O` [Compound 56, 17β-N-1-Adamantylcarbamoyl-6-azaandrost-4-methyl-4-en-3-one]: the IC50 against Steroid 5-α-Reductase [1] is 10 to 100 nM; at Steroid 5-α-Reductase [2], below 10 nM.
For `CC1=C2N(C)C[C@H]3[C@@H]4CC[C@H](C(=O)NC56CC7CC(CC(C7)C5)C6)[C@@]4(C)CC[C@@H]3[C@@]2(C)CCC1=O` [Compound 57, 17β-N-1-Adamantylcarbamoyl-6-methyl-6-azaandrost-4-methyl-4-en-3-one], the IC50 was 10 to 100 nM on Steroid 5-α-Reductase [1] and below 10 nM on Steroid 5-α-Reductase [2].
In the same order, the values of `C[C@]12CC[C@H]3[C@@H](CNC4=CC(=O)CC[C@@]43C)[C@@H]1CC[C@@H]2C(=O)NC(c1ccccc1)c1ccccc1` [Compound 58, 17β-N-Diphenylmethylcarbamoyl-6-azaandrost-4-en-3-one] are below 10 nM and 10 to 100 nM.
Take `C[C@]12CC[C@H]3[C@@H](CNC4=CC(=O)CC[C@@]43C)[C@@H]1CC[C@@H]2C(=O)N(c1ccccc1)c1ccccc1` [Compound 59, 17β-N-Diphenylcarbamoyl-6-azaandrost-4-en-3-one]: the IC50 at Steroid 5-α-Reductase [1] was below 10 nM; on Steroid 5-α-Reductase [2], 100 to 1000 nM.
Taken in the same sequence, the figures for `C[C@]12CC[C@H]3[C@@H](CNC4=CC(=O)CC[C@@]43C)[C@@H]1CC[C@@H]2C(=O)NCC1CC2CCC1C2` (stereo partly drawn) [Compound 60, 17β-N-exo-2-Norbornylmethylcarbamoyl-6-azaandrost-4-en-3-one] were 10 to 100 nM and below 10 nM.
In the case of `C[C@]12CC[C@H]3[C@@H](CNC4=CC(=O)CC[C@@]43C)[C@@H]1CC[C@@H]2C(=O)NC1CC2CCC1C2` (stereo partly drawn) [Compound 61, 17β-N-endo-2-Norbornylcarbamoyl-6-azaandrost-4-en-3-one], the IC50 on Steroid 5-α-Reductase [1] and at Steroid 5-α-Reductase [2] was 10 to 100 nM in each case.
For `CC1=C2NC[C@H]3[C@@H]4CC[C@H](C(=O)NC(C)(C)C)[C@@]4(C)CC[C@@H]3[C@@]2(C)CCC1=O` [Compound 62, 17β-N-t-Butylcarbamoyl-6-azaandrost-4-methyl-4-en-3-one], the IC50 against Steroid 5-α-Reductase [1] and on Steroid 5-α-Reductase [2] was 10 to 100 nM each time.
For `CC1=C2NC[C@H]3[C@@H]4CC[C@H](C(=O)CC(C)C)[C@@]4(C)CC[C@@H]3[C@@]2(C)CCC1=O` [Compound 64, 17β-(1-Oxo-3-methylbutyl)-6-azaandrost-4-methyl-4-en-3-one], the IC50 is below 10 nM against Steroid 5-α-Reductase [1] and 10 to 100 nM on Steroid 5-α-Reductase [2].
As to `CC(C)CC(=O)[C@H]1CC[C@H]2[C@@H]3CNC4=C(Br)C(=O)CC[C@]4(C)[C@H]3CC[C@]12C` [Compound 66, 17β-(1-Oxo-3-methylbutyl)-6-azaandrost-4-bromo-4-en-3-one], the IC50 on Steroid 5-α-Reductase [2] fell in the range of 10 to 100 nM.
On to `C[C@]12CC[C@H]3[C@@H](CNC4=CC(=O)CC[C@@]43C)[C@@H]1CC[C@@H]2C(=O)Nc1cccc2cc3ccccc3cc12` [Compound 67, 17β-N-1-Anthracylcarbamoyl-6-azaandrost-4-en-3-one], for which the IC50 on Steroid 5-α-Reductase [1] and at Steroid 5-α-Reductase [2] was below 10 nM throughout.
For `CCN(CC)C(=O)[C@H]1CC[C@H]2[C@@H]3CN(C)C4=C(C)C(=O)CC[C@]4(C)[C@H]3CC[C@]12C` [Compound 68, 17β-N,N-Diethylcarbamoyl-6-methyl-6-azaandrost-4-methyl-4-en-3-one], the IC50 on Steroid 5-α-Reductase [2] lay within 100 to 1000 nM.
Regarding `CC1=C2N(C)C[C@H]3[C@@H]4CC[C@H](C(=O)NC(C)(C)C)[C@@]4(C)CC[C@@H]3[C@@]2(C)CCC1=O` [Compound 69, 17β-N-t-Butylcarbamoyl-6-methyl-6-azaandrost-4-methyl-4-en-3-one], the IC50 on Steroid 5-α-Reductase [2] lay within 100 to 1000 nM.
With `C[C@]12CC[C@H]3[C@@H](CNC4=CC(=O)CC[C@@]43C)[C@@H]1CC[C@@H]2C(=O)OC1C2CC3CC(C2)CC1C3` (stereo partly drawn) [Compound 73, 17β-Carbo-(2-adamantyl)-oxy-6-azaandrost-4-en-3-one], the IC50 against Steroid 5-α-Reductase [1] and at Steroid 5-α-Reductase [2] was below 10 nM in each case.
